Source: US7501542B2, “Highly-packed polycationic ammonium, sulfonium and phosphonium lipids” (Invitrogen Corporation, priority 1993, dated 2009)

How the values were obtained:
[1] = test system: primary human fibroblasts; experiment: Transfection of primary human fibroblasts with pCMV β-gal DNA, in situ β-galactosidase staining; type: cell-based
Procedure: All cell lines were obtained from American Type Culture Collection (Rockville, Md.). Standard tissue culture methods were employed. […] Human fibroblasts were isolated from neonatal foreskin tissue and prepared as follows. Rinsed, fresh tissue was exposed to 25 units/ml dispase (Collaborative Research, Bedford, Mass.) overnight at 4° C., separated into epidermis and dermis, and the minced dermis was digested 10 min at 37° C. in 0.25% (v/v) trypsin, 1 mM EDTA. The reaction was stopped by a rinse and centrifugation in DMEM with 10% (v/v) FBS, in which the cells were also cultured. All cultures were incubated at 37° C., 5% CO2. Media for all cultures routinely included 100 units/ml penicillin and 100 μg/ml streptomycin.
For transfection of CHO-K1, NIH-3T3, and human fibroblast cells in 24-well plates, lipid and DNA (PCMV β-gal) were diluted separately into 25 μl aliquots of Opti-MEM I Reduced Serum Medium (GIBCO BRL; serum-free). […]
Cells were rinsed with PBS, fixed for 5 minutes in 2% (v/v) formaldehyde, 0.2% glutaraldehyde in PBS, rinsed twice with PBS, and stained 2 hr to overnight with 0.1% β-gal, 5 mM potassium ferrocyanide, 5 mM potassium ferrocyanide, 2 mM MgCl2 in PBS. […] Transfection efficiency is evaluated by counting or estimating the number of β-gal positive cells (blue-stained cells). […]

NIH-3T3 cells = experiment: Transfection of NIH-3T3 cells with pCMV β-gal DNA, in situ β-galactosidase staining; type: cell-based
Procedure: (§1) All cell lines were obtained from American Type Culture Collection (Rockville, Md.). Standard tissue culture methods were employed. Chinese hamster ovary (CHO-K1) cells were cultured in EMEM (GIBCO BRL) containing 2 mM proline and 5% (v/v) fetal bovine serum (FBS). NIH 3T3 cells were cultured in Dulbecco's-modified Eagle's medium (DMEM) containing 10% (v/v) calf serum (CS). Jurkat cells were cultured in RPMI 1640 (GIBCO BRL) containing 10% (v/v) FBS. Human fibroblasts were isolated from neonatal foreskin tissue and prepared as follows. Rinsed, fresh tissue was exposed to 25 units/ml dispase (Collaborative Research, Bedford, Mass.) overnight at 4° C., separated into epidermis and dermis, and the minced dermis was digested 10 min at 37° C. in 0.25% (v/v) trypsin, 1 mM EDTA. The reaction was stopped by a rinse and centrifugation in DMEM with 10% (v/v) FBS, in which the cells were also cultured. All cultures were incubated at 37° C., 5% CO2. Media for all cultures routinely included 100 units/ml penicillin and 100 μg/ml streptomycin. […]
(§2) Cell lysates were assayed for β-galactosidase activity as described by Sanes et al. (1986) EMBO J. 5:3133. […] Transfection efficiency is evaluated by counting or estimating the number of β-gal positive cells (blue-stained cells). […]

CHO-K1 cells = experiment: Transfection of CHO-K1 cells with pCMV β-gal DNA, in situ β-galactosidase staining; type: cell-based, Chinese hamster; conditions: CHO-K1 cells (Table 3)
Procedure: as §1, §2

Jurkat cells = experiment: Transfection of Jurkat cells with pCMVCAT DNA, CAT activity of cell lysates; type: cell-based
Procedure: All cell lines were obtained from American Type Culture Collection (Rockville, Md.). Standard tissue culture methods were employed. Chinese hamster ovary (CHO-K1) cells were cultured in EMEM (GIBCO BRL) containing 2 mM proline and 5% (v/v) fetal bovine serum (FBS). NIH 3T3 cells were cultured in Dulbecco's-modified Eagle's medium (DMEM) containing 10% (v/v) calf serum (CS). Jurkat cells were cultured in RPMI 1640 (GIBCO BRL) containing 10% (v/v) FBS. Human fibroblasts were isolated from neonatal foreskin tissue and prepared as follows. Rinsed, fresh tissue was exposed to 25 units/ml dispase (Collaborative Research, Bedford, Mass.) overnight at 4° C., separated into epidermis and dermis, and the minced dermis was digested 10 min at 37° C. in 0.25% (v/v) trypsin, 1 mM EDTA. The reaction was stopped by a rinse and centrifugation in DMEM with 10% (v/v) FBS, in which the cells were also cultured. All cultures were incubated at 37° C., 5% CO2. Media for all cultures routinely included 100 units/ml penicillin and 100 μg/ml streptomycin.
For transfection of Jurkat cells in suspension, lipid and DNA (pCMVCAT) were diluted separately into 500 μl aliquots of Opti-MEM I Reduced Serum Medium (GIBCO BRL; serum-free). These aliquots were gently mixed and incubated at room temperature for 15-45 minutes to form lipid-DNA complexes. […]

## N,N,N′,N′-tetramethyltetrapalmyl-sperminetetrammonium iodide [Compound 3]
[1]; human fibroblasts, lower concentration of lipid required for optimal activity
  transfection efficiency relative to DOSPA: comparable to DOSPA
[1]; primary human fibroblast cells (Table 1)
  effectiveness for DNA transfection: highly effective
NIH-3T3 cells; NIH-3T3 cells (Table 2)
  effectiveness for DNA transfection: highly effective
NIH-3T3 cells; NIH-3T3 cells, low amounts of DNA
  transfection effectiveness relative to DOSPA: approximately 10 fold
CHO-K1 cells
  effectiveness for DNA transfection: highly effective
Jurkat cells; Jurkat cells (Table 4)
  effectiveness for DNA transfection: highly effective
Jurkat cells; Jurkat cells, lower concentration of lipid required for optimal activity
  transfection efficiency relative to DOSPA: comparable to DOSPA
